Measured values reported in US8232407B2, “Nitrogenous heterocyclic compounds with insecticidal activity, and the preparation and use thereof” (East China University of Science and Technology, priority 2008, dated 2012).

Tests used:
Assay type in all cases: in vivo
[1] = tested on: Aphis craccivoral; assay: Insecticidal activities to aphids, immersion method; conditions: for mortality at 500 ppm: Aphis, read-out: Aphis craccivoral Mortality (%) 500 ppm
Procedure: (1): Insecticidal Activities to Aphids
Aphis (Aphis craccivoral), which belongs to Homoptera and has a piercing-sucking mouthpart, is a common insect for agricultural plant. Aphis craccivoral was tested by immersion method.
Procedure: exactly weighed various samples were independently added to N,N-dimethylformamide to form 10 g/L stock solutions. The stock solutions were diluted with 0.2 mL/L aqueous Triton X-100 solution to a concentration of 500 ppm. After stably sucking on bean sprout, the wingless adult aphis together with bean sprout were dipped into 500 ppm dilution, taken out after 5 seconds, and the excess dilution was sucked off with bibulous paper. The treated wingless adult aphis was incubated in clean vessel at a constant temperature of 23° C. Each concentration was repeated for 3 times and the control group was treated with 0.2mL/L aqueous Triton X-100 solution. The number of killed aphis was counted after 24 hours and the mortality was to calculated according to the following formula:
(§1) Mortality (%)=(the number of the survival aphis in control group−the number of the survival aphis in the treatment group)/the number of the survival aphis in control group×100%

[2] = tested on: Nilaparvata lugens; assay: Insecticidal activities to plant hopper, spraying method; conditions: for mortality at 500 ppm: Nilaparvata lugens, read-out: Nilaparvata lugens Mortality (%) 500 ppm
Procedure: as §1
(2): Insecticidal Activities to Plant hopper
Plant hopper (Nilaparvata lugens), which belongs to Homoptera and has a piercing-sucking mouthpart, is a common insect for agricultural plant. Nilaparvata lugens was tested by spraying method.
Procedure: the test compound was exactly formulated with acetone to form solutions having concentrations of 500, 250, 100, 50, 25, 12.5, 6.25, 3.13, 1.57 and 0.79 ppm, respectively. Aqueous acetone solution was used as control. Each treatment was repeated for 3 tumblers (3 times). Two ml of solution was sprayed uniformly to each tumbler with a mini manual sprayer. 10 insects were introduced to every basin 6 hours before spraying. Three series of experiments were conducted. The number of killed insects was counted after 24 hours to calculate the mortality according to the above mentioned formula.

[3] = tested on: Pseudaletia separate Walker; assay: Insecticidal activities to armyworm, leaf dipping and feeding
Procedure: as §1
(3): Insecticidal Activities to Armyworm
Armyworm (Pseudaletia separate Walker) was tested by the way of leaf dipping and feeding. The test compound was exactly formulated with acetone into solutions having concentrations of 500, 250, 100, 50, 25, 12.5, 6.25, 3.13 and 1.57 ppm, respectively. Aqueous acetone solution was used as control. Fresh maize leaves were immersed in the solution for 3 seconds, dried at room temperature, and fed to the tested insects. Each treatment was tested with 10 insects and repeated for 3 tumblers (3 times). The number of killed insects was counted after 24 hours to calculate the mortality according to the above mentioned formula.

[4] = tested on: Plutella xylostella; assay: Insecticidal activities to diamondback moth, feeding dipped leaves; conditions: for mortality at 500 ppm: Plutella xylostella, read-out: Plutella xylostella Mortality (%) 500 ppm
Procedure: as §1
(4): Insecticidal Activities to Diamondback Moth
Diamondback moth (Plutella xylostella) was tested by the way of feeding dippedleaves. Fresh cabbage leaves were immersed in above mentioned solution for 3 seconds, dried at room temperature, and fed to the tested insects. Each treatment was tested with 10 insects and repeated for 3 tumblers (3 times), while water was used as control. The number of killed insects was counted after 24 hours to calculate the mortality according to the above mentioned formula.

[5] = 500 ppm, spraying method, counted after 24 hours
[6] = 500 ppm, leaf dipping and feeding, counted after 24 hours
[7] = 500 ppm, feeding dipped leaves, counted after 24 hours

Row | SMILES | Aphis craccivoral Mortality (%) 500 ppm ([1]; in vivo) [%] | Nilaparvata lugens Mortality (%) 500 ppm ([2]; in vivo) [%] | Pseudaletia separate Walker Mortality (%) 500 ppm ([3]; in vivo) [%] | Plutella xylostella Mortality (%) 500 ppm ([4]; in vivo) [%] | mortality at 500 ppm ([1]; 500 ppm, immersion method) [%] | mortality at 500 ppm [2, 5] [%] | Pseudaletia separate Walker Mortality (%) 500 ppm [3, 6] [%] | mortality at 500 ppm [4, 7] [%] | Aphis craccivoral Mortality (%) 500 ppm ([1]; 500 ppm, immersion method) [%] | Nilaparvata lugens Mortality (%) 500 ppm [2, 5] [%] | Plutella xylostella Mortality (%) 500 ppm [4, 7] [%]
1 | CC(c1ccc(Cl)nc1)N1CCN=C1C(=Cc1ccoc1)[N+](=O)[O-] (racemic) [Compound 123] | 100 | 100 | 100 | 100 |  |  |  |  |  |  | 
2 | CC(c1ccc(Cl)nc1)N1CCN=C1C(=Cc1ccc([N+](=O)[O-])o1)[N+](=O)[O-] (racemic) [Compound 124] | 100 | 100 | 100 | 100 |  |  |  |  |  |  | 
3 | CC(c1ccc(Cl)nc1)N1CCN=C1C(=Cc1ccc(Cl)o1)[N+](=O)[O-] (racemic) [Compound 125] | 100 | 100 | 98 | 100 |  |  |  |  |  |  | 
4 | CC(c1ccc(Cl)nc1)N1CCN=C1C(=Cc1ccc(Br)o1)[N+](=O)[O-] (racemic) [Compound 126] | 100 | 100 | 100 | 100 |  |  |  |  |  |  | 
5 | CC(c1ccc(Cl)nc1)N1CCN=C1C(=Cc1cccs1)[N+](=O)[O-] (racemic) [Compound 127] | 100 | 100 | 100 | 100 |  |  |  |  |  |  | 
6 | CC(c1ccc(Cl)nc1)N1CCN=C1C(=Cc1ccsc1)[N+](=O)[O-] (racemic) [Compound 128] | 100 | 100 | 100 | 100 |  |  |  |  |  |  | 
7 | CC(c1ccc(Cl)nc1)N1CCN=C1C(=Cc1ccc([N+](=O)[O-])s1)[N+](=O)[O-] (racemic) [Compound 129] | 100 | 100 | 100 | 80 |  |  |  |  |  |  | 
8 | CC(c1ccc(Cl)nc1)N1CCN=C1C(=Cc1ccc(Cl)s1)[N+](=O)[O-] (racemic) [Compound 130] | 100 | 100 | 100 | 76 |  |  |  |  |  |  | 
9 | CC(c1ccc(Cl)nc1)N1CCN=C1C(=Cc1ccc[nH]1)[N+](=O)[O-] (racemic) [Compound 131] | 100 | 100 | 100 | 63 |  |  |  |  |  |  | 
10 | CCC(c1ccc(Cl)nc1)N1CCN=C1C(=Cc1ccc[nH]1)[N+](=O)[O-] (racemic) [Compound 132] | 73 | 84 | 89 | 99 |  |  |  |  |  |  | 
11 | CC(=C(C1=NCCN1C(C)c1ccc(Cl)nc1)[N+](=O)[O-])c1ccco1 (racemic) [Compound 133] | 48 | 50 | 90 | 68 |  |  |  |  |  |  | 
12 | CC(=C(C1=NCCN1C(C)c1ccc(Cl)nc1)[N+](=O)[O-])c1ccoc1 (racemic) [Compound 134] | 38 | 51 | 52 | 46 |  |  |  |  |  |  | 
13 | CC(=C(C1=NCCN1C(C)c1ccc(Cl)nc1)[N+](=O)[O-])c1ccc([N+](=O)[O-])o1 (racemic) [Compound 135] | 56 | 63 | 45 | 56 |  |  |  |  |  |  | 
14 | CC(=C(C1=NCCN1C(C)c1ccc(Cl)nc1)[N+](=O)[O-])c1ccc(Cl)o1 (racemic) [Compound 136] | 100 | 100 | 100 | 100 |  |  |  |  |  |  | 
15 | CC(=C(C1=NCCN1C(C)c1ccc(Cl)nc1)[N+](=O)[O-])c1ccc(Br)o1 (racemic) [Compound 137] | 98 | 100 | 100 | 100 |  |  |  |  |  |  | 
16 | CC(=C(C1=NCCN1C(C)c1ccc(Cl)nc1)[N+](=O)[O-])c1cccs1 (racemic) [Compound 138] | 100 | 100 | 100 | 100 |  |  |  |  |  |  | 
17 | CC(=C(C1=NCCN1C(C)c1ccc(Cl)nc1)[N+](=O)[O-])c1ccsc1 (racemic) [Compound 139] | 93 | 100 | 95 | 100 |  |  |  |  |  |  | 
18 | O=[N+]([O-])/C(=C/c1ccco1)C1=NCCN1Cc1ccc(Cl)nc1 [Compound 1, 2-chloro-5-((2-(2-(furan-2-yl)-1-nitrovinyl)-4,5-dihydroimidazol-1-yl)-methyl) pyridine] |  |  |  |  | 100 | 100 | 100 | 100 |  |  | 
19 | O=[N+]([O-])/C(=C/c1ccoc1)C1=NCCN1Cc1ccc(Cl)nc1 [Compound 2, 2-chloro-5-((2-(2-(furan-3-yl)-1-nitrovinyl)-4,5-dihydro-imidazol-1-yl)-methyl) pyridine] |  |  |  |  | 100 | 100 | 100 | 100 |  |  | 
20 | O=[N+]([O-])C(=Cc1ccc(Cl)o1)C1=NCCN1Cc1ccc(Cl)nc1 [Compound 4] | 100 | 100 | 100 | 100 |  |  |  |  |  |  | 
21 | O=[N+]([O-])C(=Cc1ccc(Br)o1)C1=NCCN1Cc1ccc(Cl)nc1 [Compound 5] | 100 | 100 | 100 | 100 |  |  |  |  |  |  | 
22 | O=[N+]([O-])C(=Cc1cc(Cl)co1)C1=NCCN1Cc1ccc(Cl)nc1 [Compound 6] | 100 | 100 | 100 | 100 |  |  |  |  |  |  | 
23 | O=[N+]([O-])C(=Cc1cc(Br)co1)C1=NCCN1Cc1ccc(Cl)nc1 [Compound 7] |  |  |  |  |  |  | 100 |  | 100 | 100 | 100
24 | O=[N+]([O-])C(=Cc1cc(Cl)c(Cl)o1)C1=NCCN1Cc1ccc(Cl)nc1 [Compound 8] | 100 | 100 | 100 | 100 |  |  |  |  |  |  | 
25 | O=[N+]([O-])C(=Cc1oc(Cl)cc1Cl)C1=NCCN1Cc1ccc(Cl)nc1 [Compound 9] | 100 | 100 | 100 | 100 |  |  |  |  |  |  | 
26 | O=[N+]([O-])C(=Cc1cc(Br)c(Br)o1)C1=NCCN1Cc1ccc(Cl)nc1 [Compound 10] | 100 | 100 | 100 | 100 |  |  |  |  |  |  | 
27 | O=[N+]([O-])C(=Cc1oc(Br)cc1Br)C1=NCCN1Cc1ccc(Cl)nc1 [Compound 11] | 100 | 100 | 100 | 100 |  |  |  |  |  |  | 
